# Reference: patent publication US8530456B2, “Sonic hedgehog modulators” (President and Fellows of Harvard College, priority 2008, dated 2013)
# Entries after “also recorded” stand apart in the source; their conditions may differ.
# Columns and labels:
# [1] = target: ShhN (N-terminal fragment of Sonic Hedgehog protein) (Homo sapiens, UniProt Q15465); assay: Surface plasmon resonance (SPR) binding to immobilized purified ShhN; conditions: for ShhN binding in SPR: 0.78-25 μM compound
# Experimental: Biacore™ T100 (GE Healthcare, Uppsala, Sweden) was used to perform the experiments reported herein. Sensor surface preparation and interaction analyses experiments were performed at 25° C. Prior to surface preparation, lyophilized ShhN protein (R&D Systems) was dissolved in either water or PBS buffer, at pH 7.4 and protein purity determined by Nu-Page 4-12% Bis-Tris gel in MOPS buffer with a silver stain sensor preparation.
# ShhN was immobilized onto series S sensor chip CM4 via a standard N-ethyl-N′-(dimethylaminopropyl)carbodiimide/N-hydroxysuccinimide (EDC/NHS) amine coupling procedures (Biacore Sensor Surface Handbook, 2003, version AA, Biacore, Uppsala, Sweden). Shh was diluted to 10 μg/mL in 10 mM sodium acetate pH 5.5 for these procedures and resultant immobilization levels were 1000-1200 R.U.s. Control surfaces were prepared similarly without protein derivatization and utilized as a reference surfaces for compound binding experiments.
# For compound interaction analyses, 0.01 M Hepes, pH 7.4, 0.15 M NaCl, 0.05% Surfactant P20 and 5% DMSO was used for both running and sample buffers. Compound samples were prepared by serial dilution in the range 0.78 uM-25 uM and flowed over control and derivatized surfaces for two minutes at a flow-rate of 80 μL/min. Zero concentration blank buffer cycles were included as negative control samples. Solvent correction procedures were included to compensate for any DMSO related bulk refractive index variations and performed as described previously (Karlsson, R. et al. Anal. Biochem. 278, 1-13, 2000). Non-specific binding effects to sensor surface CM4 were absent for all analyses reported.
# Data analysis was carried out using Biacore T100 evaluation software v1.1.1. Data were prepared by subtraction of reference surface data and blank buffer sample data, a procedure commonly referred to as ‘double referencing’ (Myszka, D. G. J. Mol. Recognit. 12, 1-6, 1999). Solvent correction was then applied as described previously.
# ShhN protein (rmShh) = target: T1, ShhN protein (rmShh) (Mus musculus, UniProt Q62226); assay: Small molecule microarray (SMM) screen for ShhN binding; conditions: screened in triplicate
# T1 construct: Recombinant mouse amino-terminal peptide 461-CF (rmShh); purchased R & D Systems 461-CF
# T1 sequence (Q62226 25-198 limits assumed): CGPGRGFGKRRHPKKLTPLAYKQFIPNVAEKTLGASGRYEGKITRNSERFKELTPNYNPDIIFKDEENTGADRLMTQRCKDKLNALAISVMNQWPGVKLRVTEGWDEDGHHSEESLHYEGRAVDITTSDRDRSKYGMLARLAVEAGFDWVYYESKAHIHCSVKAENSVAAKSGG
# Experimental: A screen of the ShhN protein was performed using small molecule microarrays (SMMs) containing a collection of approximately 10,000 diversity-oriented synthesis (DOS) compounds and natural products that has been reported by Koehler and co-workers, in which the entire library was arrayed on a single microscope slide (Bradner, J. E. et al. Chem. Biol. 13, 493-504, 2006). Three SMM slides were used to screen for small molecules that bind the ShhN protein, while two slides were designated as protein-free negative controls. Binding was detected by the use of a biotinylated anti-ShhN antibody, followed by incubation with streptavidin alexa 647. The treated slides were then scanned with a microarray plate reader. The duplicate negative controls eliminated many false positives, while screening in triplicate increased the accuracy of the results. Microarray image analysis was performed with GenePix Pro software (Molecular Devices, Sunnyvale Calif.). […] The software was then used to select all remaining possible positives in the ShhN-treated slides that exceeded our criteria for fluorescence intensity threshold. […]
# The three experimental SMM slides were incubated on parafilm (Alcon, Menasha Wis.) with 300 μL of a 25 μg/mL rmShh solution in a 0.1% BSA in PBS buffer. […] Slides were dried by centrifugation and scanned with a GenePix 4000B microarray plate reader (Axon Instruments, Sunnyvale Calif.). […]
# [2] = test system: Ptc1-/- MEF cell line (Gli1-beta-galactosidase reporter); assay: Ptc1-/- cell line beta-galactosidase reporter assay; type: cell-based, mouse
# Experimental: To explore further the potential mechanism of Shh pathway inhibition involving direct perturbation of the ShhN protein complex, the same compounds were tested in a Ptc1^−/− cell line derived from mouse embryos lacking Ptc1 function. The cell line had both Ptc1 alleles replaced with a β-galoctosidase (β-gal) reporter (Surajit et al., supra). Because Ptc1 inhibits Hh pathway activation by repressing Smo function, removing both Ptc1 alleles results in constitutive pathway activation.
# The ptc−/− cell line was derived from an embryonic mouse fibroblast cell line transfected with a β-galactosidase construct. The cell line was cultured in DMEM with 10% FBS until confluent, and then cells were plated 1:5 into white 96-well optical-bottom plates and allowed to reach a confluent state over 3-4 days while incubating at 37° C. After reaching confluency, the medium was removed from each well, and the cells were treated with test compound (for example, robotnikinin or cyclopamine) (EMD Biosciences, San Diego, Calif.) in DMEM with 0.5% FBS. After a 30 hour incubation, the wells were treated with Beta-Glo assay reagent (Promega, Madison, Wis.) and allowed to be gently agitated for 30 minutes at room temperature. After the agitation was complete, plates were read with an Envision Multi-Label Reader 2102 luminometer.
# [3] = test system: Gli1 and Gli2 transcripts; assay: Synthetic skin (primary human keratinocytes on collagen matrix): qPCR and histology; type: cell-based
# From the text: (§1) Culturing of primary human keratinocytes was previously described (Nguyen, B. C., et al., Genes & Dev. 20:1028-1042 (2006)). The full thickness skin model, EpiDermFT System (MatTek, Ashland), consists of normal, human-derived epidermal keratinocytes and normal, human-derived dermal fibroblasts which have been cultured to form a multilayered, highly differentiated model of the human dermis and epidermis.
# (§2) Gene expression was compared by quantifying mRNA levels by real time RT-PCR. For this, total RNA preparations (1 μg) were used in a reverse transcriptase reaction with a mix of oligonucleotide dT and random hexamer primers, followed by real time PCR with gene-specific primers (Gli1: Qiagen Quantitect PrimerAssay QT00060501; Gli2: Qiagen Quantitect PrimerAssay QT00018648), using an Icycler IQTM real time detection system (Bio-Rad) according to the manufacturer's recommendation, with SYBR Green (Bio-Rad) for detection. Each sample was tested in triplicate, and the results were normalized by real time PCR of the same cDNA with 36B4 primers (36B4 forward primer: 5′-GCAATGTTGCCAGTGTCTGT 3; reverse primer, 5′-GCCTTGACCTTTTCAGCAAG-3′).
# Gli2 mRNA = Gli2 mRNA by qPCR in primary human keratinocytes; type: cell-based
# From the text: as §1, §2
# [4] = test system: Gli1 (Gli-dependent firefly luciferase reporter, ShhL2 cell line); assay: ShhL2 (Shh-LIGHT2) Gli-luciferase reporter assay; type: cell-based
# Experimental: We examined the activity of the new series of AML compounds in Shh-LIGHT2 cells (ATCC, Manassas Va.) (Tapaile, J., et al., 2000 supra), which is an NIH3T3 cell line with a Gli-dependent firefly luciferase reporter.
# Therefore, compounds that repress Gli1 activity would be putative inhibitors of Shh signaling in the cell line in which the experiments were carried out. We examined the activity of the new series of AML compounds in the Shh Light II cell line, or ShhL2 line (ATCC, Manassas Va.) (Tapaile, J., et al., 2000 supra), which is an NIH3T3 line transformed with a Gli-luciferase construct along with zeocin and G418 resistance vectors to select for the transformed strains during normal culturing.
# (§3) ShhL2 cells are NIHT3 cells that have been transfected with a Gli-luciferase construct, as previously reported (Tapaile, et al. 2000; Surajit, et al., supra). ShhL2 cells (ATCC, Manassas, Va.) were cultured with DMEM (GIBCO, Carlsbad, Calif.), 10% Calf Bovine Serum (ATCC Manassas, Va.), 0.4 mg/ml G-418 (ATCC, Manassas, Va.), 0.15 mg/ml Zeocin (Invitrogen, Carlsbad Calif., Cat. No. R25001) at 37° C. When confluent, the cells were plated 1:5 into white 96-well optical-bottom plates and allowed to reach confluence over approximately 5-7 days. When confluent, the medium was removed and the ShhL2 cells were treated with test compound (for example, robotnikinin or cyclopamine) (EMD Biosciences, San Diego, Calif.) in DMEM with 0.5% Calf Bovine Serum. After incubation for 30 hours, each well was treated with 100 μL of Bright-Glo luciferase assay reagent (Promega, Madison, Wis.) and the plate was read with an Envision Multi-Label Reader 2102 luminometer (Perkin Elmer, Waltham, Mass.). Wells treated in identical fashion were then treated with Cell Titer-Glo reagent (Promega, Madison, Wis.) and read with an Envision Multi-Label Reader 2102 luminometer after being allowed to stand 10 minutes at room temperature.
# ShhL2 cells = assay: Cell Titer Glo cell viability assay run in parallel in ShhL2 cells; type: cell-based
# Experimental: as §3
# hair regrowth = assay: Topical application after depilation, hair regrowth in mice; type: in vivo, mouse
# Experimental: Eight-week-old C57BL/6J female mice were purchased from Charles River (Boston, Mass.). Mice were housed in community cages at the animal facilities of the Massachusetts General Hospital. All mice were fed water and murine chow ad libitum and kept under 12 h light/dark cycles. Active hair growth (anagen) was induced in the back skin during the telogen phase of the hair cycle by application of the wax-rosin mixture with subsequent depilation, as described before (Paus, R., Stenn, K. S., Link, R. E. (1990). Br. J. Dermatol. 122, 777-784).
# Robotnokinin was dissolved in 10% DMSO and applied every day topically on the depilated skin surface. Mice were kept in individual cages to avoid scratching. Telogen-anagen transformation was studied at the following time points: telogen (unmanipulated skin), anagen (day 8 postdepilation) and very late anagen (day 12 postdepilation) (see FIG. 8a, top panels). In all experiments, the neck region of back skin was harvested parallel to the vertebral line for either heat-mediated epidermal separation and subsequent real time RT-PCR analysis for Gli1 and Gli2 expression levels or embedded for histology on frozen sections (see FIG. 8a, bottom panel, and FIG. 8b).
# Gli1 mRNA = Gli1 mRNA by qPCR in primary human keratinocytes; type: cell-based
# From the text: as §1, §2
# Chain of ShhN (N-terminal fragment of Sonic Hedgehog protein) (Q15465 24-197): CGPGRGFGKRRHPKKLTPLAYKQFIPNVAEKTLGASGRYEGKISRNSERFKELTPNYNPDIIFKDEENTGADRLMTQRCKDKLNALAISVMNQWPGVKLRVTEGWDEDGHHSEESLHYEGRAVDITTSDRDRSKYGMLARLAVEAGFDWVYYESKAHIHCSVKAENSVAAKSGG
smiles,measurement,setting,value
CC1CNC(=O)C(CC(=O)N(CCO)Cc2ccccc2)CC=CCCC(N)C(=O)O1 (centres unmarked) [AML1],ShhN binding in SPR,[1],binding to ShhN in a concentration-dependant fashion
same,SMM screen result,ShhN protein (rmShh),assay positives
CC1COC(=O)C(N)CCC=CCC(CC(=O)N(CCO)Cc2ccccc2)C(=O)N1 (centres unmarked) [AML2],ShhN binding in SPR,[1],binding to ShhN in a concentration-dependant fashion
same,SMM screen result,ShhN protein (rmShh),assay positives
"CC1=C2C[C@H]3[C@@H](CC=C4C[C@@H](O)CC[C@@]43C)[C@@H]2CC[C@]12O[C@@H]1C[C@H](C)CN[C@H]1[C@H]2C [cyclopamine, reference compound]",pathway inhibition in Ptc1-/- cell line,[2]; 6.6 μM cyclopamine,significant pathway inhibition
"O=C(C[C@@H]1C/C=C/CCC(=O)O[C@H](c2ccccc2)CNC1=O)NCc1ccc(Cl)cc1 [robotnikinin, N-(4-chlorobenzyl)-2-((2R,6S,E)-5,12-dioxo-2-phenyl-1-oxa-4-azacyclododec-8-en-6-yl)acetamide]",ShhN binding in SPR,[1],ShhN-binding capacity at concentrations between 1.56 μM and 25 μM; also recorded: concentration-dependent binding to purified ShhN
same,dissociation time in SPR,[1]; compared with AML1 and AML2,longer dissociation time than AML1 and AML2
same,histology of treated synthetic skin,[3],histologically normal
same,Gli1 and Gli2 mRNA levels in synthetic skin,[3]; qPCR after incubation,reduced levels of Gli1 and Gli2 mRNA
same,endogenous Gli2 mRNA level,Gli2 mRNA,lowers levels; also recorded: lower levels of endogenous Gli2 mRNA
same,EC50,"[4]; Shh Light2, ShhL2 cell line, Bright Glo luciferase, approximations based on concentration curves",~4 µM
same,concentration giving inhibition comparable to 6.25 μM cyclopamine,[4]; Shh-LIGHT2 cells,above 30 μM
same,inhibition with co-administered purmorphamine,"[4]; Shh-LIGHT2 cells, ShhN-conditioned medium plus 3.6 μM purmorphamine",virtually all of the inhibitory effect was eliminated; also recorded: negligible inhibition
same,Gli1 ECmax,"[4]; ShhL2 cell line, concentration of maximal effect",62.5 µM
same,Shh pathway inhibition / Gli1 suppression,"[4]; ShhN-conditioned medium, 30 h incubation",concentration-dependent inhibition of ShhN-induced pathway activation; also recorded: strong concentration dependent Gli1 suppression
same,"% CI (% cyclopamine inhibition), footnote d","[4]; may be taken relative to mock treatment (comparable to 6 μM cyclopamine), cytotoxic compounds: at highest effective non-cytotoxic concentration",91%
same,cytotoxicity,"ShhL2 cells; Cell Titer Glo, ShhL2 cells, concentration above which cytotoxic",none
same,cytotoxicity,ShhL2 cells; cell titer viability assay,No significant cytotoxicity was observed
same,hair follicles in skin cross sections,hair regrowth; 12 days post depilation,lack of hair follicles
same,hair regrowth,"hair regrowth; topical, daily, 8 and 12 days post depilation, C57BL/6J mice",blocked hair regrowth
same,pathway inhibition in Ptc1-/- cell line,"[2]; 30 h, any concentration tested, normalized for cell titer",no pathway inhibition was observed; also recorded: pathway inhibition was not observed
same,effect on Gli1/Gli2 mRNA with co-administered Smo agonists purmorphamine and SAG,Gli1 mRNA; primary human keratinocytes,this effect is blocked
same,endogenous Gli1 mRNA level,"Gli1 mRNA; qPCR, normalized for cell titer",lowers levels
